{"source": "ChEMBL document CHEMBL1130936", "about": "“Design, synthesis, and biological activity of novel purine and bicyclic pyrimidine factor Xa inhibitors” (Bioorg Med Chem Lett, 1998)", "key": {"Coagulation factor X": {"molecular_target": "Coagulation factor X (Homo sapiens, UniProt P00742)", "sequence (P00742 41-179 limits assumed)": "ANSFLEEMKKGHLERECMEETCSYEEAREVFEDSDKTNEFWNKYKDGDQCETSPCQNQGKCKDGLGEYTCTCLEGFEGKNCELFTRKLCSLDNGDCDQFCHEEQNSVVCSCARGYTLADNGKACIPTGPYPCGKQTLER", "sequence (P00742 235-488 limits assumed)": "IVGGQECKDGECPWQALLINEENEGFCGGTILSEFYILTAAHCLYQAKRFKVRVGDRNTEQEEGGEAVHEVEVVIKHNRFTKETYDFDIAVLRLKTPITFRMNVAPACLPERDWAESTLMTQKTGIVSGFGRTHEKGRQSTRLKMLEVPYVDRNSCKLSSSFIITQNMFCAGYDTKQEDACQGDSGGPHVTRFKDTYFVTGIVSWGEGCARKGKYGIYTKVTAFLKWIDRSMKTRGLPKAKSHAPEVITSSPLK", "experiment": "Compound was tested for inhibitory activity against human Coagulation factor X"}, "Prothrombin": {"molecular_target": "Prothrombin (Homo sapiens, UniProt P00734)", "experiment": "Compound was tested for inhibitory activity against human thrombin"}, "Serine protease 1": {"molecular_target": "T1, Serine protease 1 (Bos taurus, UniProt P00760)", "T1 sequence (P00760 whole entry)": "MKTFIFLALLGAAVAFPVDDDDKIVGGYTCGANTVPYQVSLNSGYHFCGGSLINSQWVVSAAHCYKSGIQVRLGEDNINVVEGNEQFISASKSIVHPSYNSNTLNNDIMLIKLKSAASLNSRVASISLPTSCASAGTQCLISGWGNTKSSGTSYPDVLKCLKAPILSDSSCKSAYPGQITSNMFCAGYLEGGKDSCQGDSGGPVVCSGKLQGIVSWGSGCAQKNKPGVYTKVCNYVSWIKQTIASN", "experiment": "Compound was tested for inhibitory activity against bovine trypsin"}}, "data": [{"compound": "Cc1nc2c(Oc3cc(C(=N)N)ccc3O)nc(Oc3cccc(C(=O)N(C)C)c3)nc2n1Cc1ccccc1", "values": [{"measurement": "Ki", "setting": "Coagulation factor X", "result": 0.42, "unit": "nM"}, {"measurement": "Ki", "setting": "Prothrombin", "result": 710, "unit": "nM"}, {"measurement": "Ki", "setting": "Serine protease 1", "result": 150, "unit": "nM"}]}, {"compound": "CN(C)C(=O)c1cccc(Oc2nc(Oc3cc(C(=N)N)ccc3O)nc3c2NC(=O)CO3)c1", "values": [{"measurement": "Ki", "setting": "Coagulation factor X", "result": 106, "unit": "nM"}, {"measurement": "Ki", "setting": "Prothrombin", "result": "> 5000", "unit": "nM"}, {"measurement": "Ki", "setting": "Serine protease 1", "result": "> 5000", "unit": "nM"}]}, {"compound": "CN(C)C(=O)c1cccc(Oc2nc3c(c(Oc4cc(C(=N)N)ccc4O)n2)NC(=O)CN3)c1", "values": [{"measurement": "Ki", "setting": "Coagulation factor X", "result": 19, "unit": "nM"}, {"measurement": "Ki", "setting": "Prothrombin", "result": 1000, "unit": "nM"}, {"measurement": "Ki", "setting": "Serine protease 1", "result": 320, "unit": "nM"}]}, {"compound": "N=C(N)c1ccc(/C=C2/CCCC/C(=C/c3ccc(C(=N)N)cc3)C2=O)cc1", "values": [{"measurement": "Ki", "setting": "Prothrombin", "result": 430, "unit": "nM"}, {"measurement": "Ki", "setting": "Serine protease 1", "result": 30, "unit": "nM"}]}, {"compound": "Cc1c(F)c(Oc2cccc(C(=N)N)c2)nc(Oc2cccc(C(=O)N(C)C)c2)c1F", "values": [{"measurement": "Ki", "setting": "Prothrombin", "result": "> 5000", "unit": "nM"}]}, {"compound": "CN(C)C(=O)c1cccc(Oc2nc(Oc3cc(C(=N)N)ccc3O)nc3c2NC(=O)CN3)c1", "values": [{"measurement": "Ki", "setting": "Coagulation factor X", "result": 81, "unit": "nM"}, {"measurement": "Ki", "setting": "Prothrombin", "result": "> 5000", "unit": "nM"}, {"measurement": "Ki", "setting": "Serine protease 1", "result": 2200, "unit": "nM"}]}, {"compound": "Cc1nc2c(Oc3cccc(C(=O)N(C)C)c3)nc(Oc3cc(C(=N)N)ccc3O)nc2n1Cc1ccccc1", "values": [{"measurement": "Ki", "setting": "Coagulation factor X", "result": 10, "unit": "nM"}, {"measurement": "Ki", "setting": "Prothrombin", "result": 1300, "unit": "nM"}, {"measurement": "Ki", "setting": "Serine protease 1", "result": 760, "unit": "nM"}]}]}
